In patent US20190064177A1, “INCORPORATING COMPETITIVE BINDING INFORMATION INTO MOLECULAR ARRAY ANALYSIS TO GENERATE FUNCTION NETWORKS OF INTERACTIONS” (ARIZONA BOARD OF REGENTS ON BEHALF OF ARIZONA STATE …, priority 2017, published 2019):

Test system: diaphorase
Test: fluorescently labeled diaphorase binding to peptide array with or without excess FAD
Settings: for 1 microM FAD (array fluorescence of bound diaphorase) / 1 micro no FAD (array fluorescence of bound diaphorase): 1 micromolar labeled diaphorase; for 1 microM FAD (array fluorescence of bound diaphorase) / 10 microM FAD (array fluorescence of bound diaphorase): excess FAD present; for 1 microM FAD (array fluorescence of bound diaphorase) / 1 micro no FAD (array fluorescence of bound diaphorase) / 10 microM FAD (array fluorescence of bound diaphorase) / 10 microM no FAD (array fluorescence of bound diaphorase): 65535 is detector saturation; for 10 microM FAD (array fluorescence of bound diaphorase) / 10 microM no FAD (array fluorescence of bound diaphorase): 10 micromolar labeled diaphorase; for 1 microM noFAD/FAD / 10 microM noFAD/FAD: ratio of binding without FAD to binding with FAD; for 1 microM noFAD/FAD / Meas. ratio: 1 micromolar diaphorase; for 10 microM noFAD/FAD: 10 micromolar diaphorase; for Meas. ratio: ratio without/with FAD calculated from measured binding values
Procedure: Measurements were performed in which diaphorase was bound to an array of about 126,000 unique sequences. The sequences were chosen simply to cover sequence space. 16 of the natural 20 amino acids were used to make up these sequences with C, I, M and T omitted. The diaphorase was fluorescently labeled and each peptide sequence feature was scanned and fluorescence recorded on the array. Diaphorase bound tightly to some peptides and not at all to others. Two different concentrations of diaphorase were used, 1 and 10 micromolar, and the diaphorase was either bound in the presence of excess FAD or not. […] Indeed the Pearson correlation coefficient between w/ and w/o FAD was >0.97, which actually speaks to the reproducibility of this dataset. However, there are some differences as shown on the scatter plot of FIG. 1. When one takes a ratio of the binding without FAD and the binding with FAD, one finds the following top 30 ratios (Table 1): Note that all these sequences end with a GSG linker sequence. Because there are two concentrations, one can easily check for consistency. Note that 65535 is detector saturation, so one has to ignore those values. For this reason, the lower concentration is used most of the time. […] It appears that this was some kind of error and was ignored in subsequent analysis. A similar conclusion can be made with the 7th highest value. Looking at the sequences, RW or at least R or K followed by a nonpolar or aromatic amino acid at the N-terminus. This is interesting as FAD is negatively charged, though the adenine in FAD looks a bit like tryptophan (see FIG. 2).

In the case of “AQVAVDGFYVDGSG [array peptide with C-terminal GSG linker]”, the “1 microM FAD (array fluorescence of bound diaphorase)” value is reported as 3089, the “1 micro no FAD (array fluorescence of bound diaphorase)” value is reported as 2012.5 and the “10 microM FAD (array fluorescence of bound diaphorase)” value is reported as 22739.5. The “10 microM no FAD (array fluorescence of bound diaphorase)” value was 12627, the “1 microM noFAD/FAD” value was 0.6515 and the “10 microM noFAD/FAD” value was 0.5553. The Meas. ratio was 0.65.
“EGYANKLLALFSGSG [array peptide with C-terminal GSG linker]” was tested, and the “1 microM FAD (array fluorescence of bound diaphorase)” value was 1727, the “1 micro no FAD (array fluorescence of bound diaphorase)” value was 1034 and the “10 microM FAD (array fluorescence of bound diaphorase)” value was 10408.25. For the same sequence, the “10 microM no FAD (array fluorescence of bound diaphorase)” value was 6648, the “1 microM noFAD/FAD” value was 0.5987 and the “10 microM noFAD/FAD” value was 0.6387. For the same sequence, the Meas. ratio was 0.60.
A Meas. ratio of 0.69 was found for LFDNVLEFVEDGS in this work.
“YRFQSGLPAKDGSG [array peptide with C-terminal GSG linker]” was tested, and the “1 microM FAD (array fluorescence of bound diaphorase)” value was 1489.75, the “1 micro no FAD (array fluorescence of bound diaphorase)” value was 4041.25 and the “10 microM FAD (array fluorescence of bound diaphorase)” value was 20226.25. The “10 microM no FAD (array fluorescence of bound diaphorase)” value was 50316.25, the “1 microM noFAD/FAD” value was 2.713 and the “10 microM noFAD/FAD” value was 2.488. The Meas. ratio was 2.71.
A Meas. ratio of 2.43 was found for WRVQAWRPNKVEG in this work.
In the case of “PRSFGYNNVGGSG [array peptide with C-terminal GSG linker]”, the “1 microM FAD (array fluorescence of bound diaphorase)” value is reported as 2525.5, the “1 micro no FAD (array fluorescence of bound diaphorase)” value is reported as 6842.5 and the “10 microM FAD (array fluorescence of bound diaphorase)” value is reported as 40495.5. For the same sequence, the “10 microM no FAD (array fluorescence of bound diaphorase)” value was 65535, the “1 microM noFAD/FAD” value was 2.709 and the “10 microM noFAD/FAD” value was 1.618. For the same sequence, the Meas. ratio was 2.71.
A Meas. ratio of 0.68 was found for “VLAYKLQVDGSG [array peptide with C-terminal GSG linker]” in this work.
With “EDEGLSKFEGGSG [array peptide with C-terminal GSG linker]” the “1 microM FAD (array fluorescence of bound diaphorase)” value was 4165.5, the “1 micro no FAD (array fluorescence of bound diaphorase)” value was 560.55 and the “10 microM FAD (array fluorescence of bound diaphorase)” value was 1378.5. For the same sequence, the “10 microM no FAD (array fluorescence of bound diaphorase)” value was 1220.25, the “1 microM noFAD/FAD” value was 0.1346 and the “10 microM noFAD/FAD” value was 0.8852. It also gave a Meas. ratio of 0.13.
A Meas. ratio of 0.70 was found for “WHLLGWVGYGGSG [array peptide with C-terminal GSG linker]” in this work.
A Meas. ratio of 0.69 was found for PVPWRHVNYAHSG in this work.
With “LLGFLGGSG [array peptide with C-terminal GSG linker]” the “1 microM FAD (array fluorescence of bound diaphorase)” value was 4143.5, the “1 micro no FAD (array fluorescence of bound diaphorase)” value was 2317.75 and the “10 microM FAD (array fluorescence of bound diaphorase)” value was 40264.25. The “10 microM no FAD (array fluorescence of bound diaphorase)” value was 26253, the “1 microM noFAD/FAD” value was 0.5594 and the “10 microM noFAD/FAD” value was 0.652. For the same sequence, the Meas. ratio was 0.56.
For “RFKYPLDGGSG [array peptide with C-terminal GSG linker]”, the “1 microM FAD (array fluorescence of bound diaphorase)” value was 2199.25, the “1 micro no FAD (array fluorescence of bound diaphorase)” value was 5764.75 and the “10 microM FAD (array fluorescence of bound diaphorase)” value was 30389. The “10 microM no FAD (array fluorescence of bound diaphorase)” value was 55899.25, the “1 microM noFAD/FAD” value was 2.621 and the “10 microM noFAD/FAD” value was 1.839. The Meas. ratio was 2.62.
“RYNLYKPSDGSG [array peptide with C-terminal GSG linker]” was tested, and the “1 microM FAD (array fluorescence of bound diaphorase)” value was 1245.75, the “1 micro no FAD (array fluorescence of bound diaphorase)” value was 3569.5 and the “10 microM FAD (array fluorescence of bound diaphorase)” value was 18165. The “10 microM no FAD (array fluorescence of bound diaphorase)” value was 50327.75, the “1 microM noFAD/FAD” value was 2.865 and the “10 microM noFAD/FAD” value was 2.771. It also gave a Meas. ratio of 2.87.
A Meas. ratio of 2.10 was found for “NRKFYWNAGGSG [array peptide with C-terminal GSG linker]” in this work.
A Meas. ratio of 0.66 was found for PVDFGYQLKVSGS in this work.
A Meas. ratio of 0.72 was found for “HVYGLNLFDGSG [array peptide with C-terminal GSG linker]” in this work.
